Laboratory results published in patent US20260373248A1, “DEGRADABLE PEPTOIDS” (Medici Therapeutics, Inc., priority 2023, published 2026).
Starred links: 1 amine or outer side, 2 acyl side, 3 side chain; linkers in the order of their positions; H or OH if unused. Non-standard residues stand in square brackets, D forms with d. Residues, ends and D or L forms follow the SMILES beside them. *: point of attachment. N(3-lauroyloxypropyl)Gly = CCCCCCCCCCCC(=O)OCCCNCC(=O)O; N(2-decanoyloxyethyl)Gly = CCCCCCCCCC(=O)OCCNCC(=O)O; Gly(N-(CH2)3O-octanoyl) = CCCCCCCC(=O)OCCCNCC(=O)O; N(3-imidazol-1-ylpropyl)Gly = O=C(O)CNCCCn1ccnc1; Gly(N-3-morpholinopropyl) = O=C(O)CNCCCN1CCOCC1; N(2-ethylhexyl)Gly = CCCCC(CC)CNCC(=O)O; X1 = CCCCC(CC)CSSCCN(CC(=O)[*:2])[*:1]; X3 = CCCCCCCCSSCCN(CC(=O)[*:2])[*:1]; N(CH(CH2OH)2)Gly = O=C(O)CNC(CO)CO; N(octyl)Gly = CCCCCCCCNCC(=O)O; NDecylGly = CCCCCCCCCCNCC(=O)O; For = O=C*

Experiments:
[1] = Delivery vehicle size and polydispersity by dynamic light scattering; type: physicochemical; conditions: DLS in PBS; peptoid:DSPC:Cholesterol:DMG-PEG2000 weight ratio 20:1.79:7.16:1.84, mRNA
Experimental: Delivery vehicles were formulated by rapid microfluidic mixing using a high throughput microfluidic system. Briefly, ethanol solutions containing peptoid, DSPC, Cholesterol, DMG-PEG2000 at weight ratio of 20:1.79:7.16:1.84, were mixed with 10 mM sodium citrate buffer (pH 5.0) containing synthesized mRNA at a ratio of 1:3 by volume. Peptoid based LNPs were subsequently dialyzed against 1-2 liters of tris-sucrose buffer (TS7, pH 7.4) overnight at 4 °C. Delivery vehicle size and polydispersity (PDI) was measured by dynamic light scattering in PBS.
(§1) Degradable peptoids described herein were formulated as various formulations described in Table 3 according to the procedure described in Example 2. Particle size was characterized as described in Example 2, and […] encapsulation of mRNA was determined as described in Example 3.

firefly luciferase = experiment: In vivo firefly luciferase expression after intravenous injection of fLuc mRNA delivery vehicles (IVIS imaging); design: species or system female Balb/c mice; conditions: mice, 2.5 ug fLuc mRNA intravenously, 6 hours post-injection
Experimental: (§2) All animal studies were conducted under accreditation by the California State Department of Public Health and under supervision of IACUC and Veterinarian Supervision. For imaging studies, female Balb/c mice (6-8 weeks old) were obtained and acclimatized for a minimum of 3 days prior to experiments. The animals were maintained on a 12 hour light cycle in a temperature and humidity controlled room. A daily health check was performed as well as food and water check. For dosing, mice were injected with 2.5 ug fLuc mRNA-containing Nutshells intravenously in 100 μL total injection value. At 6 hours post-injection, mice were anesthetized with isoflurane, injected IP with 30 mg/mL D-luciferin at a dose of 10 μL per gram bodyweight intraperitoneally. Imaging was done 10 minutes post D-luciferin injection using an IVIS Spectrum Imaging System (Caliper Life Sciences). Immediately after in vivo imaging, mice were terminally bled by cardiac puncture and euthanized. The organs of interest were harvested, placed in black 24-well plates, and imaged. Living Image software (Perkin Elmer) was used to quantify the total photon flux in regions of interest.
Luciferase expression in these formulations was also determined as described in Example 4.

luciferase = experiment: Luciferase expression after local (intramuscular or subcutaneous) administration of mRNA; type: in vivo; conditions: mRNA 0.01 mpk, 6 hours; for IM Flux: intramuscular; for SC Flux: subcutaneous
Experimental: as §2
Aminolipidated peptoids were also effective for local administration of mRNA through subcutaneous (S.C.) or intramuscular (I.M.) routes of administration. For these examples, mRNA was administered at a dose of 0.1 mpk for intratomoral, or 0.01 mpk for subcutaneous and intramuscular administration, and the resulting bioluminescence quantified after 6 hours according to a similar procedure as described in Example 4.

mRNA = mRNA encapsulation (modified Quant-iT RiboGreen assay); type: physicochemical; conditions: RiboGreen, without vs with Triton X-100
Experimental: The mRNA concentration and the percentage of encapsulated mRNA were determined using fluorescent-based Quant-iT RiboGreen RNA Reagent Kit (Life Technologies, Waltham, MA) as described previously. To determine the mRNA concentration, PNPs was incubated with […] for 10 min to release entrapped mRNA, followed by addition of RiboGreen RNA reagent. The fluorescence intensity of mRNA-RiboGreen reagent complex (excitation at 485 nm and emission at 530 nm) was detected using a microplate reader. The ratio of fluorescence without and with Triton X-100 were used to calculate the percentage of encapsulated mRNA.
as §1

hEPO = experiment: Quantification of hEPO in serum after IV injection of mRNA (Human EPO ELISA); type: in vivo; conditions: Balb/c mice, 2.5 μg mRNA IV, serum after 6 hours
Experimental: Balb/c mice were treated with 2.5 μg of mRNA coding for human erythropoiten via IV injection according to a similar method as in Example 4. hEPO protein in the serum was quantified after 6 hours using the Human EPO ELISA Kit from Invitrogen (catalog #BMS2035-2). Wash buffer (PBS with 1% tween 20) and assay buffer (PBS with 1% tween 20, 10% BSA) were prepared from a 20× concentrate with milli-Q water. Serum samples were diluted with PBS according to expected EPO concentration, with a 50× dilution for low expression samples and up to a 30,000× dilution for samples expected to have high expression. Microwell strips were washed in a plate washer with wash buffer and tapped on an absorbent pad to remove excess buffer. 100 μL of sample diluent were added to each well that will be used for the standard curve. 50 μL of sample diluent was added to each sample well.
The standard curve was prepared by reconstituting the human erythropoietin standard by adding the volume of water listed on the vial label. Standard was swirled gently and allowed to reconstitute for 10 minutes prior to use, then 100 μL is added to standard wells and mixed well. 100 μL from standard wells were then transferred to sample wells and mixed well. This was repeated 5 times to produce 2 columns of standard dilutions from 100 to 1.6 mIU/mL. 100 μL was discarded from the last microwells. The final 2 wells contained 100 μL of sample diluent and served as a blank. An external standard was also included to facilitate a mIU/mL conversion to ng/mL. The same serial dilution method was repeated starting with the external standard at 6.25 ng/mL. Once the standards were added, 50 μL of each sample was added in duplicate to the sample wells. Next, the biotin-conjugate was prepared by diluting 1:100 in assay buffer. 50 μL of biotin-conjugate was added to all wells and the plate was covered with a plate seal and shaken at room temperature for 1 hour. During the last few minutes of shaking, streptavidin-HRP was prepared by diluting 1:100 in assay buffer. The plate was washed on a plate washer and tapped on an absorbent pad to remove remaining wash buffer.
100 μL of the diluted streptavidin-HRP was added to each well and the plate was sealed and shaken for 15 minutes at room temperature. After 15 minutes, the plate seal was removed and the plate was washed on a plate washer and remaining wash buffer tapped out on an absorbent pad. 100 μL of TMB substrate was added to all wells and the plate was incubated for 10 minutes at room temperature out of direct light. Color development was checked every few minutes and the assay was stopped when the highest standard was dark blue. The reaction was stopped by pipetting 100 μL of stop solution into each well. Immediately after stop solution was added, the plate was gently tapped to ensure the solution was mixed. Absorbance was then read at 450 nm for each well. A standard curve was plotted for both the kit-provided standards (mIU/mL) and the external standard (ng/mL) and fit using Prism. Sample absorbances that fell within the standard curve were interpolated and adjusted for dilution (including a 2× assay dilution). Samples that were not within the standard curve were repeated at an adjusted dilution.

| PDI [1] | Particle Size [1] [nm] | mean percent encapsulation of RNA (mRNA) [%] | SMILES | Total Flux (firefly luciferase) [p/s] | IM Flux (luciferase) [p/s] | SC Flux (luciferase) [p/s] | hEPO (hEPO) [ng/mL] |
| --- | --- | --- | --- | --- | --- | --- | --- |
| 0.083 | 76.9 | 86.7 | CCCCCCCC(=O)OCCCN(C=O)CC(=O)N(CCCOC(=O)CCCCCCC)CC(=O)N(CCSSCC(CC)CCCC)CC(=O)N(CCCN1CCOCC1)CC(=O)N(CCSSCC(CC)CCCC)CC(=O)N(CCCOC(=O)CCCCCCC)CC(=O)N(CCCOC(=O)CCCCCCC)CC(N)=O (stereo not shown) [Compound 133] (For-[Gly(N-(CH2)3O-octanoyl)][Gly(N-(CH2)3O-octanoyl)][X1][Gly(N-3-morpholinopropyl)][X1][Gly(N-(CH2)3O-octanoyl)][Gly(N-(CH2)3O-octanoyl)]-NH2) | 2.80E+08 | 1.08E+07 | 3.73E+07 | – |
| 0.062 | 73.8 | 83.7 | CCCCCCCCSSCCN(CC(=O)N(CCCN1CCOCC1)CC(=O)N(CCSSCCCCCCCC)CC(=O)N(CCCOC(=O)CCCCCCC)CC(=O)N(CCCOC(=O)CCCCCCC)CC(N)=O)C(=O)CN(CCCOC(=O)CCCCCCC)C(=O)CN(C=O)CCCOC(=O)CCCCCCC [Compound 134] (For-[Gly(N-(CH2)3O-octanoyl)][Gly(N-(CH2)3O-octanoyl)][X3][Gly(N-3-morpholinopropyl)][X3][Gly(N-(CH2)3O-octanoyl)][Gly(N-(CH2)3O-octanoyl)]-NH2) | 5.63E+08 | 6.40E+07 | 1.60E+08 | – |
| 0.158 | 59.2 | 91.4 | CCCCCCCCCC(=O)OCCN(CC(=O)N(CCOC(=O)CCCCCCCCC)CC(=O)N(CCSSCC(CC)CCCC)CC(=O)N(CCOC(=O)CCCCCCCCC)CC(=O)N(CCOC(=O)CCCCCCCCC)CC(=O)N(CCSSCC(CC)CCCC)CC(N)=O)C(=O)CNC(CO)CO (stereo not shown) [Compound 135] (H-[N(CH(CH2OH)2)Gly][N(2-decanoyloxyethyl)Gly][N(2-decanoyloxyethyl)Gly][X1][N(2-decanoyloxyethyl)Gly][N(2-decanoyloxyethyl)Gly][X1]-NH2) | 8.92E+08 | 3.49E+08 | 5.56E+08 | – |

The next lines start with the molecule.

| SMILES | PDI [1] | Particle Size [1] [nm] | mean percent encapsulation of RNA (mRNA) [%] | Total Flux (firefly luciferase) [p/s] | IM Flux (luciferase) [p/s] | SC Flux (luciferase) [p/s] | hEPO (hEPO) [ng/mL] |
| --- | --- | --- | --- | --- | --- | --- | --- |
| CCCCCCCCCCCC(=O)OCCCN(CC(=O)N(CCCOC(=O)CCCCCCCCCCC)CC(=O)N(CC(=O)N(CCCOC(=O)CCCCCCCCCCC)CC(=O)N(CCCOC(=O)CCCCCCCCCCC)CC(=O)N(CC(N)=O)CC(CC)CCCC)CC(CC)CCCC)C(=O)CNCCCn1ccnc1 (stereo not shown) [Compound 68] (H-[N(3-imidazol-1-ylpropyl)Gly][N(3-lauroyloxypropyl)Gly][N(3-lauroyloxypropyl)Gly][N(2-ethylhexyl)Gly][N(3-lauroyloxypropyl)Gly][N(3-lauroyloxypropyl)Gly][N(2-ethylhexyl)Gly]-NH2) | 0.178 | 87.2 | 79.7 | 4.20E+08 | 5.10E+06 | 3.39E+08 | 72.6 |
| CCCCCCCCCCCC(=O)OCCCN(C=O)CC(=O)N(CCCOC(=O)CCCCCCCCCCC)CC(=O)N(CC(=O)N(CCCN1CCOCC1)CC(=O)N(CC(=O)N(CCCOC(=O)CCCCCCCCCCC)CC(=O)N(CCCOC(=O)CCCCCCCCCCC)CC(N)=O)CC(CC)CCCC)CC(CC)CCCC (stereo not shown) [Compound 91] (For-[N(3-lauroyloxypropyl)Gly][N(3-lauroyloxypropyl)Gly][N(2-ethylhexyl)Gly][Gly(N-3-morpholinopropyl)][N(2-ethylhexyl)Gly][N(3-lauroyloxypropyl)Gly][N(3-lauroyloxypropyl)Gly]-NH2) | – | – | – | – | 2.44E+08 | 4.22E+07 | 17.4 |
| CCCCCCCC(=O)OCCCN(C=O)CC(=O)N(CCCOC(=O)CCCCCCC)CC(=O)N(CCc1ccccc1)CC(=O)N(CC(=O)N(CCCn1ccnc1)CC(=O)N(CCCOC(=O)CCCCCCC)CC(=O)N(CCc1ccccc1)CC(=O)N(CCCOC(=O)CCCCCCC)CC(=O)N(CC(N)=O)CC(CC)CCCC)CC(CC)CCCC (stereo not shown) [Compound 123] | 0.201 | 118.1 | 56.3 | – | 6.45E+06 | 1.01E+07 | 172 |
| CCCCCCCCCCN(CC(=O)N(CCSSCC(CC)CCCC)CC(=O)N(CCCOC(=O)CCCCCCC)CC(N)=O)C(=O)CN(CCSSCC(CC)CCCC)C(=O)CN(CCCOC(=O)CCCCCCC)C(=O)CN(CC(CC)CCCC)C(=O)CNC(CO)CO (stereo not shown) [Compound 130] (H-[N(CH(CH2OH)2)Gly][N(2-ethylhexyl)Gly][Gly(N-(CH2)3O-octanoyl)][X1][NDecylGly][X1][Gly(N-(CH2)3O-octanoyl)]-NH2) | 0.086 | 75.5 | 86.0 | 4.45E+09 | 2.72E+08 | 1.92E+08 | – |
| CCCCCCCCN(C=O)CC(=O)N(CCCOC(=O)CCCCCCC)CC(=O)N(CCSSCC(CC)CCCC)CC(=O)N(CCCN1CCOCC1)CC(=O)N(CCSSCC(CC)CCCC)CC(=O)N(CCCOC(=O)CCCCCCC)CC(=O)N(CCCCCCCC)CC(N)=O (stereo not shown) [Compound 132] (For-[N(octyl)Gly][Gly(N-(CH2)3O-octanoyl)][X1][Gly(N-3-morpholinopropyl)][X1][Gly(N-(CH2)3O-octanoyl)][N(octyl)Gly]-NH2) | 0.090 | 86.0 | 74.2 | 1.31E+10 | 4.62E+08 | 6.94E+08 | – |
